Results taken from ChEMBL document CHEMBL1150991, “Comparative molecular field analysis of benzopyran-4-carbothioamide potassium channel openers” (Bioorg Med Chem Lett, 1994).

How the values were obtained:
[1] = organism: Rattus norvegicus; assay: Molar concentration required to relax rat aorta precontracted with 30 mM KCL by 50% of intrinsic activity (calculated); type: functional
[2] = organism: Rattus norvegicus; assay: Molar concentration required to relax rat aorta precontracted with 30 mM KCL by 50% of intrinsic activity; type: functional

Compound	EC50 [1]	EC50 [2]
CNC(=S)C1=CC(C)(C)Oc2ccc(OC)cc21	457 nM	–
C/N=C(/S)C1=CC(C)(C)Oc2ccc(S(C)(=O)=O)cc21	490 nM	–
C/N=C(/S)C1=CC(C)(C)Oc2ccc(C#N)cc21	21.4 nM	–
CNC(=S)C1=CC(C)(C)Oc2ccc(C(=O)OC)cc21	85.1 nM	95.5 nM
C/N=C(/S)C1=CC(C)(C)Oc2ccc([N+](=O)[O-])cc21	1.29 nM	–
C/N=C(/S)C1=CC(C)(C)Oc2ccc(S(=O)(=O)c3ccccc3)cc21	19.5 nM	–
C/N=C(/S)C1=CC(C)(C)Oc2ccccc21	4470 nM	–

Other lines, results leading:

EC50 [1]	EC50 [2]	Compound
282 nM	–	CCc1ccc2c(c1)C(/C(S)=N\C)=CC(C)(C)O2
11.7 nM	–	C/N=C(/S)C1=CC(C)(C)Oc2ccc(C(F)(F)C(F)(F)F)cc21
3.98 nM	–	C/N=C(/S)C1=CC(C)(C)Oc2ccc(OC(F)(F)F)cc21
15.1 nM	–	C/N=C(/S)C1=CC(C)(C)Oc2ccc(Br)cc21
2.19 nM	–	C/N=C(/S)C1=CC(C)(C)Oc2ccc(C(F)(F)F)cc21
28.8 nM	–	C/N=C(/S)C1=CC(C)(C)Oc2ccc(Cl)cc21
